In patent publication US20010053796A1, “Delta-aminolevulinic acid for prevention and treatment of infection microorganisms and parasite” (priority 2000, published 2001):

What was measured:
Assay in all cases: Treatment effect of infected fry by digestion in breeding water
Format in all cases: in vivo, Sebastes schlegeli
Details in all cases: 50 fish
Streptococcus sp. = system: Streptococcus sp.
Method: (§1) To be used as experimental fish in this example, fry of Bastardhalibut and Sebastes schlegeli (mean body weight 2 g), 50 per each breeding tank, were preliminary-bred for 1 week and stabilized. […] The artificial infection methods were carried out by the digestion method. Pathogenic organisms were applied into fish tanks and digested in seawater, wherein the concentration of organisms has adjusted to 10^4 CFU/mL for an hour, and infected. Treatment conditions are as follows. After artificial infection. Infected fishes were moved to fish tanks and kept in the infection period for 3 days. On the fourth day of infection, 0.1, 1.0, 5 and 10 ppm δ-aminolevulinic acid were introduced to use as breeding water. Fish was bred in aerobic condition for 1˜24 hours without exchanging water and then, bred for 2 weeks after exchanging with clean seawater. Then, they were monitored to check for the mortality of fish according to infection. In the control groups, after each bacteria were identically introduced through the digestion method, mortality of Bastardhalibut and Sebastes schlegeli according to bacteria infection was identified while breeding with non-treated condition of δ-aminolevulinic acid. As a result of this experiment, δ-aminolevulinic acid-treated groups have shown high viability in both Bastardhalibut (Table 12˜Table 15) and Sebastes schlegeli (Table 16˜Table 19).

Vibrio anguillarum = system: Vibrio anguillarum
Method: as §1

Staphylococcus sp. = system: Staphylococcus sp.
Method: as §1

Staphylococcus epidermis = system: Staphylococcus epidermis
Method: as §1

Edwardsiella tarda = system: Edwardsiella tarda
Method: as §1

Pseudomonas sp. = system: Pseudomonas sp.
Method: as §1

[1] = digestion 0.1 ppm from 4th day of infection, Sebastes schlegeli fry
[2] = digestion 1.0 ppm from 4th day of infection, Sebastes schlegeli fry
[3] = digestion 5.0 ppm from 4th day of infection, in Sebastes schlegeli
[4] = digestion 10 ppm from 4th day of infection, Sebastes schlegeli fry
[5] = digestion 5.0 ppm from 4th day of infection
[6] = digestion 10 ppm from 4th day of infection

NCC(=O)CCC(=O)O [δ-aminolevulinic acid]
Viability (Streptococcus sp.; [1]): 50%
Viability (Streptococcus sp.; [2]): 76%
Viability (Streptococcus sp.; [3]): 86%
Viability (Streptococcus sp.; [4]): 86%
Viability (Vibrio anguillarum; [1]): 50%
Viability (Vibrio anguillarum; [2]): 74%
Viability (Vibrio anguillarum; [5]): 84%
Viability (Vibrio anguillarum; [4]): 86%
Viability (Staphylococcus sp.; [1]): 50%
Viability (Staphylococcus sp.; [2]): 76%
Viability (Staphylococcus sp.; [5]): 84%
Viability (Staphylococcus sp.; [4]): 86%
Viability (Staphylococcus epidermis; [1]): 40%
Viability (Staphylococcus epidermis; [2]): 70%
Viability (Staphylococcus epidermis; [3]): 66%
Viability (Staphylococcus epidermis; [6]): 84%
Viability (Edwardsiella tarda; [1]): 60%
Viability (Edwardsiella tarda; [2]): 80%
Viability (Edwardsiella tarda; [3]): 84%
Viability (Edwardsiella tarda; [4]): 94%
Viability (Pseudomonas sp.; [1]): 40%
Viability (Pseudomonas sp.; [2]): 76%
Viability (Pseudomonas sp.; [3]): 86%
Viability (Pseudomonas sp.; [6]): 84%
